Values quoted from earlier work in patent publication US9604971B2, “Co-crystal of the PAR-1 receptor antagonists vorapaxar and aspirin” (ARALEZ PHARMACEUTICALS TRADING DAC, priority 2013, dated 2017).

Conditions: over time; reverted to the crystalline structure of Form 1

stability of crystalline polymorphic form: unstable
Structure (SMILES): CCOC(=O)N[C@@H]1CC[C@@H]2[C@@H](C1)C[C@H]1C(=O)O[C@H](C)[C@H]1[C@H]2/C=C/c1ccc(-c2cccc(F)c2)cn1 [Form 2]
